Measurements taken from publication PMC11589101, “Profiling the endocrine-disrupting properties of triazines, triazoles, and short-chain PFAS” (Toxicological Sciences, 2024).
pIC50: −log10 of the molar value.

Assays:
[1] = biological target: T1, human transthyretin (TTR) (Homo sapiens, UniProt P02766); test: FITC-T4 TTR-binding assay, screening method
Procedure: (§1) All incubations were performed at room temperature.
In the screening tests, 48 μl of Tris-HCl buffer (pH 8.0) was added to each well of black low-binding 96-well plates. Two microliters of each test compound dissolved in their respective solvent was added to each well and the plate was shaken at 600 rpm for 5 min. […] Fluorescence was measured again to check for possible autofluorescence or quenching by the test compound.
(§2) Fluorescence enhancement was determined for each well by subtracting its relative fluorescence units (RFU) before TTR addition from its RFUs after TTR addition. The resulting values were normalized to percentages of the vehicle control. A concentration–response curve was fitted through the data using the same model as in the reporter gene assays.

[2] = biological target: T1, human transthyretin (TTR); test: FITC-T4 TTR-binding assay, initial (original) method
Procedure: as §1, §2
After 15 min of incubation, fluorescence was measured and fluorescence enhancement was calculated by subtracting RFU without TTR from RFU with TTR. Further data analysis was similar to the screening assays.

[3] = screening method, read-out: IC50 TTR-binding assay, Screening Method
[4] = initial method, 110 nM FITC-T4, 30 nM TTR
[5] = initial method, 110 nM FITC-T4, 30 nM TTR, read-out: IC50 competing with FITC-T4 for binding to TTR

| SMILES | pIC50 [1, 3] | % FITCT4 bound to TTR ([2]; 0.1 uM) [%] | % FITCT4 bound to TTR ([2]; 0.3 uM) [%] | % FITCT4 bound to TTR ([2]; 1 uM) [%] | % FITCT4 bound to TTR ([2]; 3 uM) [%] | % FITCT4 bound to TTR ([2]; 10 uM) [%] | % FITCT4 bound to TTR ([2]; 30 uM) [%] | % FITCT4 bound to TTR ([2]; 100 uM) [%] | IC10 competing with FITC-T4 for binding to TTR [2, 4] [µM] | pIC50 [2, 5] | pIC50 [1] | pIC50 [2] |
| --- | --- | --- | --- | --- | --- | --- | --- | --- | --- | --- | --- | --- |
| O=S(=O)(O)C(F)(F)C(F)(F)C(F)(F)C(F)(F)F [PFBS, Perfluorobutane sulfonic acid] | 5.09 | 97.3072 | 93.7406 | 89.6282 | 73.6529 | 44.4619 | 21.5802 | 11.5263 | 0.82 | 5.08 | – | – |
| O=C(O)C(F)(F)C(F)(F)C(F)(F)C(F)(F)C(F)(F)F [PFHxA, Perfluorohexanoic acid] | 5.60 | 90.7115 | 81.4177 | 77.1918 | 44.5805 | 21.8899 | 12.6684 | 2.971 | 0.20 | 5.59 | – | – |
| O=S(=O)(O)C(F)(F)C(F)(F)C(F)(F)C(F)(F)C(F)(F)C(F)(F)F [PFHxS, Perfluorohexane sulfonic acid] | – | 74.2951 | 47.4669 | 17.2866 | 8.444 | 4.647 | 2.41 | 0.6647 | 0.034 | – | 6.62 | 6.57 |
| O=C(O)C(F)(F)C(F)(F)C(F)(F)C(F)(F)C(F)(F)C(F)(F)C(F)(F)F [PFOA, Perfluorooactanoic acid] | 6.55 | 82.1607 | 45.526 | 17.6477 | 6.188 | 2.364 | 0.3274 | 0.2557 | 0.053 | 6.55 | – | – |
| O=S(=O)(O)C(F)(F)C(F)(F)C(F)(F)C(F)(F)C(F)(F)C(F)(F)C(F)(F)C(F)(F)F [PFOS, Perfluorooctane sulfonic acid] | 6.72 | 75.2122 | 36.6572 | 10.1163 | 2.093 | 0.8236 | 1.548 | -1.121 | 0.047 | 6.68 | – | – |
| NC(Cc1cc(I)c(Oc2cc(I)c(O)c(I)c2)c(I)c1)C(=O)O (stereo not drawn) [T4, thyroxine, reference compound] | – | – | – | – | – | – | – | – | 0.0024 | – | – | – |
